# Assays:
# [1] = test system: GLXMAW (Soybean, Williams); assay: Postemergence herbicidal evaluation; type: in vivo, Glycine max, (L.) Merr. cv Williams; settings: rate 0.1250 kg/ha
# Experimental: (§1) In the tests, seedling plants are grown in jiffy flats for about two weeks. […] After spraying, the plants are placed on greenhouse benches and are cared for in accordance with conventional greenhouse procedures. From four to five weeks after treatment, the seedling plants are examined and rated according to the rating system set forth below. Where more than one test is involved for a given compound, the data are averaged.
# (§2) Results of herbicide evaluation are expressed on a rating scale (0-9). The scale is based upon a visual observation of plant stand, vigor, malformation, size, chlorosis and overall plant appearance as compared with a control.
# [2] = test system: ABUTH (Abutilon theophrasti); assay: Postemergence herbicidal evaluation; type: in vivo, Medic.; settings: rate 0.1250 kg/ha
# Experimental: as §1, §2
# [3] = test system: SAGPY (Sagittaria pygmaea); assay: Flooded paddy, preemergence weed control; type: in vivo, L.; settings: rate 0.1250 kg/ha, rated 3-4 weeks after treatment, 0-9 rating scale
# Experimental: as §2
# (§3) Preemergence herbicidal activity under flooded paddy conditions is determined as follows: plant seeds or propagating organs are planted in the top 0.5 cm of silt loam soil in 32 oz. plastic containers with a diameter of 10.5 cm and no drainage holes. Water is added to these containers and maintained at 1.5 to 3 cm above the soil surface for the duration of the experiment. […] The treated containers are placed on greenhouse benches and cared for in accordance with conventional greenhouse procedures.
# [4] = test system: TRZAWR (Wheat, Winter, cv Riband); assay: Postemergence herbicidal evaluation; type: in vivo, Triticum aestivum; settings: rate 0.1250 kg/ha
# Experimental: as §1, §2
# [5] = test system: MOOVA (Monochoria vaginalis); assay: Flooded paddy, preemergence weed control; type: in vivo, Presl.; settings: rate 0.1250 kg/ha, rated 3-4 weeks after treatment, 0-9 rating scale
# Experimental: as §2, §3
# [6] = test system: ECHCG (Echinochloa crus-galli); assay: Postemergence herbicidal evaluation; type: in vivo, (L.) Beau; settings: rate 0.1250 kg/ha
# Experimental: as §1, §2
# ZEAMX (Corn, Field) [7] = assay: Preemergence herbicidal evaluation; type: in vivo, Zea mays, L.; settings: Rate 0.2500 kg/ha; preemergence; rated 4-5 weeks after treatment
# Excerpt: as §2
# (§4) The preemergence herbicidal activity of the test compounds of the present invention is exemplified by the following tests in which the seeds of a variety of monocotyledonous and dicotyledonous plants are separately mixed with potting soil and planted on top of approximately one inch of soil in separate pint cups. […] The treated cups are then placed on greenhouse benches, watered and cared for in accordance with conventional greenhouse procedures. From four to five weeks after treatment, the tests are terminated and each cup is examined and rated according to the rating system provided in Example 87. The plant species used and the compounds evaluated are the same as those shown in Example 87.
# [8] = test system: IPOHE (Ipomoea hederacea); assay: Preemergence herbicidal evaluation; type: in vivo, (L.) Jacq.; settings: Rate 0.2500 kg/ha; preemergence; rated 4-5 weeks after treatment
# Excerpt: as §2, §4
# [9] = test system: IPOHE (Ipomoea hederacea); assay: Postemergence herbicidal evaluation; type: in vivo, (L.) Jacq.; settings: rate 0.1250 kg/ha
# Experimental: as §1, §2
# [10] = test system: CYPSE (Cyperus serotinus); assay: Flooded paddy, preemergence weed control; type: in vivo, Rottb.; settings: rate 0.1250 kg/ha, rated 3-4 weeks after treatment, 0-9 rating scale
# Experimental: as §2
# Preemergence herbicidal activity under flooded paddy conditions is determined as follows: plant seeds or propagating organs are planted in the top 0.5 cm of silt loam soil in 32 oz. plastic containers with a diameter of 10.5 cm and no drainage holes. Water is added to these containers and maintained at 1.5 to 3 cm above the soil surface for the duration of the experiment. The test compounds are applied as aqueous/acetone mixtures 50/50 v/v pipetted directly into the flood water to give the equivalent of about 0.0080 to 0.1250 kg/ha of active ingredient. The treated containers are placed on greenhouse benches and cared for in accordance with conventional greenhouse procedures. Three to four weeks after treatment, the test is terminated and each container is examined and herbicidal effect rated according to the rating system provided in Example 87.
# [11] = test system: GLXMAW (Soybean, Williams); assay: Preemergence herbicidal evaluation; type: in vivo, Glycine max, (L.) Merr. cv Williams; settings: Rate 0.2500 kg/ha; preemergence; rated 4-5 weeks after treatment
# Excerpt: as §2, §4
# [12] = test system: CASOB (Cassia obtusifolia); assay: Postemergence herbicidal evaluation; type: in vivo, L.; settings: rate 0.1250 kg/ha
# Experimental: as §1, §2
# [13] = test system: CHEAL (Chenopodium album); assay: Postemergence herbicidal evaluation; type: in vivo, L.; settings: rate 0.1250 kg/ha
# Experimental: as §1, §2
# [14] = test system: AMBEL (Ambrosia artemisifolia); assay: Postemergence herbicidal evaluation; type: in vivo, L.; settings: rate 0.1250 kg/ha
# Experimental: as §1, §2
# CYPIR (Cyperus iria) = assay: Flooded paddy, preemergence weed control; type: in vivo; settings: rate 0.1250 kg/ha, rated 3-4 weeks after treatment, 0-9 rating scale
# Experimental: as §2, §3
# ZEAMX (Corn, Field) [15] = assay: Postemergence herbicidal evaluation; type: in vivo, Zea mays, L.; settings: rate 0.1250 kg/ha
# Experimental: as §1, §2
# [16] = test system: ECHCG (Echinochloa crus-galli); assay: Preemergence herbicidal evaluation; type: in vivo, (L.) Beau; settings: Rate 0.2500 kg/ha; preemergence; rated 4-5 weeks after treatment
# Excerpt: as §2, §4
# SETVI (Setaria viridis) [17] = assay: Preemergence herbicidal evaluation; type: in vivo, (L.) Beau; settings: Rate 0.2500 kg/ha; preemergence; rated 4-5 weeks after treatment
# Excerpt: as §2, §4
# ORYSAT (Rice, Tebonnet) [18] = assay: Preemergence herbicidal evaluation; type: in vivo, Oryza sativa, (L.) Tebonnet; settings: Rate 0.2500 kg/ha; preemergence; rated 4-5 weeks after treatment
# Excerpt: as §2, §4
# ORYSAT (Rice, Tebonnet) [19] = assay: Postemergence herbicidal evaluation; type: in vivo, Oryza sativa, (L.) Tebonnet; settings: rate 0.1250 kg/ha
# Experimental: as §1, §2
# SETVI (Setaria viridis) [20] = assay: Postemergence herbicidal evaluation; type: in vivo, (L.) Beau; settings: rate 0.1250 kg/ha
# Experimental: In the tests, seedling plants are grown in jiffy flats for about two weeks. The test compounds are dispersed in 50/50 acetone/water mixtures containing 0.5% TWEEN® 20, a polyoxyethylene sorbitan monolaurate surfactant of Atlas Chemical Industries, in sufficient quantities to provide the equivalent of about 0.0040 kg to 1.000 kg per hectare of active compound when applied to the plants through a spray nozzle operating at 40 psi for a predetermined time. After spraying, the plants are placed on greenhouse benches and are cared for in accordance with conventional greenhouse procedures. From four to five weeks after treatment, the seedling plants are examined and rated according to the rating system set forth below. Where more than one test is involved for a given compound, the data are averaged.
# as §2
# GALAP (Galium aparine) = assay: Postemergence herbicidal evaluation; type: in vivo; settings: rate 0.1250 kg/ha
# Experimental: as §1, §2
# [21] = test system: CASOB (Cassia obtusifolia); assay: Preemergence herbicidal evaluation; type: in vivo, L.; settings: Rate 0.2500 kg/ha; preemergence; rated 4-5 weeks after treatment
# Excerpt: as §2, §4
# [22] = test system: CHEAL (Chenopodium album); assay: Preemergence herbicidal evaluation; type: in vivo, L.; settings: Rate 0.2500 kg/ha; preemergence; rated 4-5 weeks after treatment
# Excerpt: as §2, §4
# [23] = test system: AMBEL (Ambrosia artemisifolia); assay: Preemergence herbicidal evaluation; type: in vivo, L.; settings: Rate 0.2500 kg/ha; preemergence; rated 4-5 weeks after treatment
# Excerpt: as §2, §4
# [24] = test system: ECHORC (Echinochloa oryzoides); assay: Flooded paddy, preemergence weed control; type: in vivo, Echinochloa oryzoides (Ard.) Fritsch.; settings: rate 0.1250 kg/ha, rated 3-4 weeks after treatment, 0-9 rating scale
# Experimental: as §2, §3
# ORYSAT (Rice, Tebonnet) [25] = assay: Flooded paddy, post-transplant rice tolerance; type: in vivo, Oryza sativa, (L.) Tebonnet; settings: flooded paddy, post-transplant rice; rate 0.1250 kg/ha; rated 3-4 weeks after treatment; 0-9 rating scale
# Experimental: as §2
# The tolerance of transplanted rice to post-transplanted herbicide application is determined as follows: two ten-day-old rice seedlings (cv. Tebonnet) are transplanted into silt loam soil in 32 oz. plastic containers with a diameter of 10.5 cm and no drainage holes. After transplanting, the containers are flooded and the water level is maintained at 1.5 to 3 cm above the soil surface. […] The treated containers are placed on greenhouse benches, watered such that the water level is maintained as stated above, and cared for in accordance with conventional greenhouse procedures.
# [26] = test system: TRZAWR (Wheat, Winter, cv Riband); assay: Preemergence herbicidal evaluation; type: in vivo, Triticum aestivum; settings: Rate 0.2500 kg/ha; preemergence; rated 4-5 weeks after treatment
# Excerpt: as §2, §4
# [27] = test system: ABUTH (Abutilon theophrasti); assay: Preemergence herbicidal evaluation; type: in vivo, Medic.; settings: Rate 0.2500 kg/ha; preemergence; rated 4-5 weeks after treatment
# Excerpt: as §2, §4
structure (smiles),measurement,setting,value
"Cn1cccc1-c1nsc2ccc(-n3c(=O)cc(C(F)(F)F)n(C)c3=O)cc12 [Compound 6, 1-methyl-3-[3-(1-methylpyrrol-2-yl)-1,2-benzisothiazol-5-yl]-6-(trifluoromethyl)uracil]","Postemergence herbicidal rating, GLXMAW",[1],7.5
same,"Postemergence herbicidal rating, ABUTH",[2],9.0
same,"herbicidal rating, SAGPY",[3],4.0
same,"Postemergence herbicidal rating, TRZAWR",[4],4.5
same,"herbicidal rating, MOOVA",[5],9.0
same,"Postemergence herbicidal rating, ECHCG",[6],0.0
same,ZEAMX preemergence herbicidal rating,"ZEAMX (Corn, Field) [7]",5.0
same,IPOHE preemergence herbicidal rating,[8],9.0
same,"Postemergence herbicidal rating, IPOHE",[9],9.0
same,"herbicidal rating, CYPSE",[10],9.0
same,GLXMAW preemergence herbicidal rating,[11],4.0
same,"Postemergence herbicidal rating, CASOB",[12],0.0
same,"Postemergence herbicidal rating, CHEAL",[13],4.0
same,"Postemergence herbicidal rating, AMBEL",[14],3.0
same,"herbicidal rating, CYPIR",CYPIR (Cyperus iria),9.0
same,"Postemergence herbicidal rating, ZEAMX","ZEAMX (Corn, Field) [15]",5.0
same,ECHCG preemergence herbicidal rating,[16],9.0
same,SETVI preemergence herbicidal rating,SETVI (Setaria viridis) [17],8.0
same,ORYSAT preemergence herbicidal rating,"ORYSAT (Rice, Tebonnet) [18]",2.0
same,"Postemergence herbicidal rating, ORYSAT","ORYSAT (Rice, Tebonnet) [19]",3.0
same,"Postemergence herbicidal rating, SETVI",SETVI (Setaria viridis) [20],0.0
same,"Postemergence herbicidal rating, GALAP",GALAP (Galium aparine),4.0
same,CASOB preemergence herbicidal rating,[21],0.0
same,CHEAL preemergence herbicidal rating,[22],9.0
same,AMBEL preemergence herbicidal rating,[23],9.0
same,"herbicidal rating, ECHORC",[24],2.0
same,"herbicidal rating, ORYSAT (rice tolerance)","ORYSAT (Rice, Tebonnet) [25]",3.0
same,TRZAWR preemergence herbicidal rating,[26],2.0
same,ABUTH preemergence herbicidal rating,[27],9.0

# Reference: patent publication US6706663B2, “Herbicidal 3-heterocyclic substituted benzisothiazole and benzisoxazole compounds” (Wyeth, priority 2000, dated 2004)
